The values that follow come from ChEMBL document CHEMBL1152072, “Synthesis and structure-activity relationships of novel antiseptics” (1997).

Common to all, as to type: functional
One assay deals with Burkholderia cepacia. In words: Antibacterial activity against Burkholderia cepacia 10 after 3 mins.
Assay [1] relates to Enterococcus faecalis. Description: Antibacterial activity against Enterococcus faecalis IFO 12580 after 30 seconds.
In assay [2] the test system is Escherichia coli. Description: Antibacterial activity against Escherichia coil NIHJ JC-2 after 30 seconds.
For assay [3], the system named is Escherichia coli. In words: Antibacterial activity against Escherichia coli after 3 mins.
For assay [4], the system named is Pseudomonas aeruginosa. In words: Antibacterial activity against Pseudomonas aeruginosa ATCC 10145 after 3 mins.
Assay [5] concerns Pseudomonas aeruginosa. In words: Antibacterial activity against Pseudomonas aeruginosa ATCC 10145 after 30 seconds.
Assay [6] concerns Serratia marcescens. In words: Antibacterial activity against Serratia marcescens IFO 12648 after 30 seconds.
Assay [7] relates to Staphylococcus aureus. In words: Antibacterial activity against Staphylococcus aureus FDA 209P after 30 seconds.
For assay [8], the system named is Staphylococcus aureus. Description: Antibacterial activity against Staphylococcus aureus after 3 mins.
The test system of assay [9] is Staphylococcus epidermidis. In words: Antibacterial activity against Staphylococcus epidermidis ATCC 12228 after 30 seconds.
Assay [10] concerns Staphylococcus aureus. In words: Antibacterial activity against methicillin-resistant Staphylococcus aureus 57 after 3 mins.
Assay [11] has as its system Enterococcus faecalis. In words: Antibacterial activity against Enterococcus faecalis IFO 12580.
Assay [12] relates to Escherichia coli. In words: Antibacterial activity against Escherichia coli NIHJ JC-2,after 30 seconds.
For assay [13], the system named is Serratia marcescens. In words: Antibacterial activity against Serratia marcescens IFO 12648,after 30 seconds.
Assay [14] relates to Staphylococcus aureus. In words: Antibacterial activity against Staphylococcus aureus after 30 seconds.

On to `CCCCCCCC/N=C(N)/N=C(\N)NCc1ccc(Cl)c(Cl)c1.Cl`, for which the Activity result with Burkholderia cepacia is “<=10 ug ml-1”; in the assay on Enterococcus faecalis [1], 10 µg/mL; in the assay with Escherichia coli [2], 20 µg/mL; in the assay on Escherichia coli [3] it was “<=10 ug ml-1”; in the assay on Pseudomonas aeruginosa [4], “<=10 ug ml-1”; in the assay with Pseudomonas aeruginosa [5] it was 10 µg/mL. For the same molecule, the Activity with Serratia marcescens [6] was 20 µg/mL; in the assay with Staphylococcus aureus [7] it was 20 µg/mL; in the assay with Staphylococcus aureus [8] it was “<=10 ug ml-1”; in [9], 5 µg/mL.

In the case of `CCCCCCCC/N=C(N)/N=C(\N)Nc1ccc(Cl)c(Cl)c1.Cl`, the Activity with Escherichia coli [3], in the assay on Pseudomonas aeruginosa [4] and in the assay on Staphylococcus aureus [8] was 50 µg/mL throughout.

For `CCCCCCCCCC/N=C(N)/N=C(\N)Nc1ccc(Cl)c(Cl)c1.Cl`, the Activity with Burkholderia cepacia was 100 µg/mL; in the assay with Escherichia coli [3], 20 µg/mL; in the assay on Pseudomonas aeruginosa [4] it was 100 µg/mL; with Staphylococcus aureus [8] it was 100 µg/mL.

For `Cl.N=C(NCc1ccc(Cl)c(Cl)c1)NC(=N)Nc1ccc(Br)cc1`, the Activity with Burkholderia cepacia is 20 µg/mL; in the assay with Escherichia coli [3], “<=10 ug ml-1”; in the assay on Pseudomonas aeruginosa [4], 20 µg/mL; with Staphylococcus aureus [8] it was 20 µg/mL.

Turning to `CCCCCC/N=C(N)/N=C(\N)NCc1ccc(Cl)c(Cl)c1.Cl`, the Activity worked out at 100 µg/mL in the assay on Burkholderia cepacia, 50 µg/mL in the assay on Escherichia coli [3], 50 µg/mL with Pseudomonas aeruginosa [4] and 50 µg/mL in the assay with Staphylococcus aureus [8].

As to `CCCCCC/N=C(N)/N=C(\N)Nc1ccc(Cl)cc1.Cl`, the Activity in the assay with Burkholderia cepacia stood at 100 µg/mL; in the assay on Escherichia coli [3], 100 µg/mL; with Pseudomonas aeruginosa [4] it was 20 µg/mL; in the assay on Staphylococcus aureus [8], 500 µg/mL.

On to `Cl.N=C(NCc1ccc(Cl)c(Cl)c1)NC(=N)Nc1ccc(Cl)c(Cl)c1Cl`, for which the Activity result in the assay with Burkholderia cepacia, with Escherichia coli [3], in the assay with Pseudomonas aeruginosa [4] and in the assay on Staphylococcus aureus [8] was “<=10 ug ml-1” in each case.

For the molecule `CCCCCC/N=C(N)/N=C(\N)NCc1ccc(Cl)cc1.Cl`, the Activity with Burkholderia cepacia is 100 µg/mL; in the assay with Escherichia coli [3], 100 µg/mL; in the assay with Pseudomonas aeruginosa [4] it was 50 µg/mL; in the assay on Staphylococcus aureus [8] it was above 100 µg/mL.

With `Cl.N=C(NCc1ccc(Cl)c(Cl)c1)NC(=N)Nc1ccc(I)cc1`, the Activity entry in the assay with Burkholderia cepacia was “<=10 ug ml-1”; in the assay with Escherichia coli [3], “<=10 ug ml-1”; with Pseudomonas aeruginosa [4], “<=10 ug ml-1”; in the assay with Staphylococcus aureus [8], 20 µg/mL.

As to `Cl.N=C(NCc1ccc(Cl)c(Cl)c1)NC(=N)Nc1ccc(Cl)c(Cl)c1`, the Activity with Escherichia coli [3] turned out to be 10 µg/mL; in the assay with Pseudomonas aeruginosa [4], 10 µg/mL; in the assay with Staphylococcus aureus [8], 50 µg/mL.

As to `CCCCCC/N=C(N)/N=C(\N)Nc1ccc(Cl)c(Cl)c1.Cl`, the Activity in the assay on Burkholderia cepacia was determined as 20 µg/mL; in the assay with Escherichia coli [3] it was 20 µg/mL; in the assay with Pseudomonas aeruginosa [4], 20 µg/mL; in the assay on Staphylococcus aureus [8] it was 100 µg/mL.

On to `Cc1ccc(NC(=N)/N=C(\N)NCc2ccc(Cl)c(Cl)c2)cc1C.Cl`, for which the Activity in the assay on Burkholderia cepacia is 20 µg/mL; in the assay with Escherichia coli [3], “<=10 ug ml-1”; with Pseudomonas aeruginosa [4], “<=10 ug ml-1”; in the assay with Staphylococcus aureus [8] it was 20 µg/mL.

Take `CCCCCCCCCC/N=C(N)/N=C(\N)NCc1ccc(Cl)c(Cl)c1.Cl`: the Activity is 100 µg/mL in the assay on Burkholderia cepacia, “<=10 ug ml-1” with Escherichia coli [3], 100 µg/mL with Pseudomonas aeruginosa [4] and 50 µg/mL with Staphylococcus aureus [8].

As for `Cl.N=C(NCc1ccc(Cl)c(Cl)c1)NC(=N)Nc1ccc(Cl)cc1Cl`, the Activity entry with Burkholderia cepacia is “<=10 ug ml-1”; in the assay on Escherichia coli [3] it was “<=10 ug ml-1”; with Pseudomonas aeruginosa [4] it was “<=10 ug ml-1”; in the assay with Staphylococcus aureus [8] it was 20 µg/mL.

Take `Cl.N=C(NCc1ccc(Cl)c(Cl)c1)NC(=N)Nc1ccc(Cl)cc1`: the Activity came to 50 µg/mL with Escherichia coli [3], 50 µg/mL in the assay with Pseudomonas aeruginosa [4], 50 µg/mL in the assay on Staphylococcus aureus [8] and 100 µg/mL in the assay on Staphylococcus aureus [10].

Turning to `CCCCCCCCCCCC/N=C(N)/N=C(\N)NCc1ccc(Cl)c(Cl)c1.Cl`, the Activity in the assay with Burkholderia cepacia is above 500 µg/mL; in the assay with Escherichia coli [3], 20 µg/mL; with Pseudomonas aeruginosa [4], 100 µg/mL; in the assay with Staphylococcus aureus [8] it was 100 µg/mL.

Take `CCCCCCCCCCCC/N=C(N)/N=C(\N)Nc1ccc(Cl)c(Cl)c1.Cl`: the Activity in the assay with Burkholderia cepacia is above 500 µg/mL; with Escherichia coli [3], 20 µg/mL; in the assay with Pseudomonas aeruginosa [4] it was 20 µg/mL; in the assay with Staphylococcus aureus [8], 100 µg/mL.

Regarding `N=C(NCCCCCCNC(=N)NC(=N)Nc1ccc(Cl)cc1)NC(=N)Nc1ccc(Cl)cc1` [CHLORHEXIDINE], the Activity in the assay on Burkholderia cepacia is above 500 µg/mL; in the assay on Enterococcus faecalis [11] it was above 160 µg/mL; with Escherichia coli [12] it was 80 µg/mL; in the assay with Escherichia coli [3] it was 20 µg/mL; in the assay with Pseudomonas aeruginosa [4], 100 µg/mL; in the assay on Pseudomonas aeruginosa [5], 160 µg/mL. For the same molecule, the Activity is 40 µg/mL in the assay with Serratia marcescens [13], 100 µg/mL with Staphylococcus aureus [8], above 160 µg/mL with Staphylococcus aureus [14] and 40 µg/mL in assay [9].
